Data taken from patent US11345666B2, “Phenyl and pyridinyl substituted imidazoles as modulators of RORγT” (Janssen Pharmaceutica NV, priority 2018, dated 2022).

What was measured:
[1] = target: human RORγt ligand binding domain (RORγt LBD) (Homo sapiens (Human), UniProt P51449); assay: RORγt ThermoFluor assay
From the text: ThermoFluor® is a fluorescence based assay that estimates ligand binding affinities by measuring the effect of a ligand on protein thermal stability (Pantoliano, M. W., Petrella, E. C., Kwasnoski, J. D., Lobanov, V. S., Myslik, J., Graf, E., Carver, T., Asel, E., Springer, B. A., Lane, P., and Salemme, F. R. (2001) High-density miniaturized thermal shift assays as a general strategy for drug discovery. J Biomol Screen 6, 429-40, and Matulis, D., Kranz, J. K., Salemme, F. R., and Todd, M. J. (2005) Thermodynamic stability of carbonic anhydrase: measurements of binding affinity and stoichiometry using ThermoFluor. Biochemistry 44, 5258-66). This approach is applicable to a wide variety of systems, and rigorous in theoretical interpretation through quantitation of equilibrium binding constants (KD).
The shift in the melting point described as a ΔTm is proportional to the concentration and affinity of the ligand.
RORγt ThermoFluor® Assay Construct
Nucleotides 850-1635 (SEQ ID NO:2) coding for the wild type human RORγt ligand binding domain (RORγt LBD) were cloned into the pHIS 1 vector, a modified pET E. coli expression vector (Accelagen, San Diego), containing an in-frame N-terminal His-tag and a TurboTEV protease cleavage site (ENLYFQG, SEQ ID NO:3) upstream of the cloned insert sequence. The amino acid sequence for the RORγt construct used in the Thermofluor® assay is shown as SEQ ID NO:4.
ThermoFluor® experiments were carried out using instruments owned by Janssen Research and Development, L.L.C. through its acquisition of 3-Dimensional Pharmaceuticals, Inc. 1,8-ANS (Invitrogen) was used as a fluorescent dye. Protein and compound solutions are dispensed into black 384-well polypropylene PCR microplates (Abgene) and overlayed with silicone oil (1 μL, Fluka, type DC 200) to prevent evaporation.
Bar-coded assay plates are robotically loaded onto a thermostatically controlled PCR-type thermal block and then heated at a typical ramp-rate of 1° C./min for all experiments. Fluorescence was measured by continuous illumination with UV light (Hamamatsu LC6) supplied via fiber optic and filtered through a band-pass filter (380-400 nm; >6 OD cutoff). Fluorescence emission of the entire 384-well plate was detected by measuring light intensity using a CCD camera (Sensys, Roper Scientific) filtered to detect 500±25 nm, resulting in simultaneous and independent readings of all 384 wells. Images were collected at each temperature, and the sum of the pixel intensity in a given area of the assay plate was recorded versus temperature. Reference wells contained RORγt without compounds, and the assay conditions were as follows: • 0.065 mg/mL RORγt • 60 μM 1,8-ANS • 100 mM Hepes, pH 7.0 • 10 mM NaCl • 2.5 mM GSH • 0.002% Tween-20
Project compounds were arranged in a pre-dosed mother plate (Greiner Bio-one) wherein compounds are serially diluted in 100% DMSO by 1:2 from a high concentration of 10 mM over 12 columns within a series (column 12 is a reference well containing DMSO, no compound). The compounds were robotically dispensed directly into assay plates (1×=46 nL) using a Hummingbird capillary liquid handling instrument (Digilab). Following compound dispense, protein and dye in buffer was added to achieve the final assay volume of 3 μL, followed by 1 μL of silicone oil.
The binding affinity was estimated as described previously (Matulis, D., Kranz, J. K., Salemme, F. R., and Todd, M. J. (2005) Thermodynamic stability of carbonic anhydrase: measurements of binding affinity and stoichiometry using ThermoFluor®. Biochemistry 44, 5258-66) using the following thermodynamic parameters of protein unfolding: […]

[2] = target: full-length human RORγt (Homo sapiens (Human), UniProt P51449); assay: RORγt (full-length human) reporter assay, conditions A or B; assay type: cell-based; conditions: for inhibition at 3 µM: 3 μM compound concentration (*); for IC50: HEK293T cells, read-out: RORγt (FL) Reporter Assay A or B, IC50; for inhibition at 6 µM: read-out: RORγt (FL) Reporter Assay A or B, % inhibition @ 6 μM, 6 μM compound concentration
From the text: RORγt (Full-Length Human) Reporter Assay:
Cells used in this assay were transiently co-transfected with three different plasmids, one expressing the GAL4-DNA binding domain (DBD)-RORγt fusion protein under control of a CMV promoter (NH2-Gal4-DBD:RORC—COOH in pCMV-BD, Stratagene #211342), and two reporter plasmids—the firefly luciferase reporter under control of a GAL4 promoter (pFR-Luc 2×GAL4) and Renilla luciferase reporter under control of CMV promoter (pRL-CMV, Promega #E2261). […] HEK293T cells were plated at 35,000 per well in 96-well plate in medium of DMEM with 10% FBS. After 18-22 hours incubation, the transfection was carried out by using a PEI solution with 170.5 ng total DNA/well (50 ng pCMV-BD-ROR plus 20 ng of pFR-Luc reporter and 0.5 ng of pRL-CMV reporter plus 100 ng Carrier DNA (Clontech #630440) for each well). 4-6 hours after transfection, cells were treated with compounds for overnight in the medium with final concentration of FBS 1.3% and DMSO 0.1%. After overnight (16 to 20 hours) incubation, media were removed and cells were lysed with […] Glo Lysis Buffer (Promega) for 10-15 minutes followed by 10 minute incubation with 50 μL Dual Glo reagent (Promega) at room temperature. Firefly luciferase luminescence was measured using a BMG Pherastar plate reader. To each well, 50 μL Stop and Glo reagent was added and incubated for 10 minutes at room temperature. Renilla luminescence was measured using a BMG Pherastar plate reader. To calculate the effect of compounds on RORγt activity, firefly values were normalized against values of DMSO only and values of reference compound at saturating concentration, then further normalized against Renilla signals. IC50s were generated by plotting final Renilla normalized data against compound concentration and percent inhibition was calculated against DMSO control.
Cells used in this assay were transiently co-transfected with three different plasmids, one expressing the GAL4-DNA binding domain (DBD)-RORγt fusion protein under control of a CMV promoter (NH2-Gal4-DBD:RORC—COOH in pCMV-BD, Stratagene #211342), and two reporter plasmids—the firefly luciferase reporter under control of a GAL4 promoter (pFR-Luc 2×GAL4) and Renilla luciferase reporter under control of CMV promoter (pRL-CMV, Promega #E2261). […] HEK293T cells were plated at 8750 cells per well in 384-well plate in medium of DMEM with 10% FBS. After 18-22 hours incubation, the transfection was carried out by using a PEI solution with 42.6 ng total DNA/well (12.5 ng pCMV-BD-ROR plus 5 ng of pFR-Luc reporter and 0.125 ng of pRL-CMV reporter plus 25 ng Carrier DNA (Clontech #630440) for each well). 4-6 hours after transfection, cells were treated with compounds for overnight in the medium with final concentration of FBS 1.3% and DMSO 0.1%. After overnight (16 to 20 hours) incubation, media were removed and cells were lysed with 20 μL Glo Lysis Buffer (Promega) for 10-15 minutes followed by 10 minute incubation with 20 μL Dual Glo reagent (Promega) at room temperature. Firefly luciferase luminescence was measured using a BMG Pherastar plate reader. To each well, 20 μL Stop and Glo reagent was added and incubated for 10 minutes at room temperature. Renilla luminescence was measured using a BMG Pherastar plate reader. To calculate the effect of compounds on RORγt activity, firefly values were normalized against values of DMSO only and values of reference compound at saturating concentration, then further normalized against Renilla signals. IC50s were generated by plotting final Renilla normalized data against compound concentration and percent inhibition was calculated against DMSO control.

[3] = read-out: RORγt (FL) Reporter Assay A or B, % inhibition

full-length human RORγt, sequence (P51449 other isoform, or with tags, fused parts or gaps): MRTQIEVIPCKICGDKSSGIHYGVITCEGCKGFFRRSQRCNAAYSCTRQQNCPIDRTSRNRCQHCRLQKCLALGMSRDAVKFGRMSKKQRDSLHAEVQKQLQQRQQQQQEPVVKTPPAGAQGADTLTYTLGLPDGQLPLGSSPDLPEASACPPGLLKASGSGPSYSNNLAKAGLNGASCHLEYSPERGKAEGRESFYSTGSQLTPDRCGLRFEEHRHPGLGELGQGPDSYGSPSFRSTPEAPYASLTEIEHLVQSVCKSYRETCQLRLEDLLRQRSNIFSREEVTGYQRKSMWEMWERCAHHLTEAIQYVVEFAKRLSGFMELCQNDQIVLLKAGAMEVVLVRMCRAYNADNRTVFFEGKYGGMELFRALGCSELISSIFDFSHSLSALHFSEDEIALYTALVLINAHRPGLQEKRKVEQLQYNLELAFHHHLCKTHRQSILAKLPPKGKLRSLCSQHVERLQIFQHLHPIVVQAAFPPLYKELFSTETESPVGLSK
human RORγt ligand binding domain (RORγt LBD), sequence (P51449 other isoform, or with tags, fused parts or gaps): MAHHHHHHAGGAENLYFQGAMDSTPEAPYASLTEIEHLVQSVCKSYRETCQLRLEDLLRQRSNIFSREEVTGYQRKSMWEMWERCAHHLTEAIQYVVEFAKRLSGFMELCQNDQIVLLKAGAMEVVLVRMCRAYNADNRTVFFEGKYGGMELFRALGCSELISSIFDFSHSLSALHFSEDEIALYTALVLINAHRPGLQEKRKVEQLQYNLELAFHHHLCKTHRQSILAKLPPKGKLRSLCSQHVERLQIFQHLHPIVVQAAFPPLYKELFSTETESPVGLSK

| Structure (SMILES) | IC50 [2] [µM] | inhibition at 6 µM [2] [%] | other results |
| --- | --- | --- | --- |
| CCc1nc(C(=O)NC[C@]2(O)CC[C@@H](S(C)(=O)=O)CC2)c(Cl)n1-c1ncc(CC(C(F)(F)F)C(F)(F)F)cc1OC(F)F [Example 62, 5-Chloro-1-(3-(difluoromethoxy)-5-(3,3,3-trifluoro-2-(trifluoromethyl)propyl)pyridin-2-yl)-2-ethyl-N-(((1s,4s)-1-hydroxy-4-(methylsulfonyl)cyclohexyl)methyl)-1H-imidazole-4-carboxamide] | 0.089 | – | Kd [1]: 0.019 µM; inhibition at 3 µM [2, 3]: 100% |
| CCc1nc(C(=O)NC[C@]2(O)CC[C@@H](S(C)(=O)=O)CC2)c(Cl)n1-c1ncc(CC(C)(C)CC(F)(F)F)cc1OC(F)F [Example 107, 5-Chloro-1-(3-(difluoromethoxy)-5-(4,4,4-trifluoro-2,2-dimethylbutyl)pyridin-2-yl)-2-ethyl-N-(((1s,4s)-1-hydroxy-4-(methylsulfonyl)cyclohexyl)methyl)-1H-imidazole-4-carboxamide] | – | – | inhibition at 3 µM [2, 3]: 85% |
| CCc1nc(C(=O)NC[C@]2(O)CC[C@@H](S(C)(=O)=O)CC2)c(C#N)n1-c1cnc(CCC(F)(F)F)cc1OC [Example 118, 5-Cyano-2-ethyl-N-(((1s,4s)-1-hydroxy-4-(methylsulfonyl)cyclohexyl)methyl)-1-(4-methoxy-6-(3,3,3-trifluoropropyl)pyridin-3-yl)-1H-imidazole-4-carboxamide] | 2.4 | 54 | – |
| CCc1nc(C(=O)NC[C@H]2CC[C@H](S(C)(=O)=O)CC2)c(Cl)n1-c1ccc(CC(C)(C)C(F)(F)F)c(F)c1 [Example 103, 5-Chloro-2-ethyl-1-(3-fluoro-4-(3,3,3-trifluoro-2,2-dimethylpropyl)phenyl)-N-(((1r,4r)-4-(methylsulfonyl)cyclohexyl)methyl)-1H-imidazole-4-carboxamide] | – | – | Kd [1]: 0.0044 µM |
| CCc1nc(C(=O)NC[C@]2(O)CC[C@@H](S(C)(=O)=O)CC2)c(C)n1-c1ncc(CCCC(F)(F)F)cc1OC(F)F [Example 52, 1-(3-(Difluoromethoxy)-5-(4,4,4-trifluorobutyl)pyridin-2-yl)-2-ethyl-N-(((1s,4s)-1-hydroxy-4-(methylsulfonyl)cyclohexyl)methyl)-5-methyl-1H-imidazole-4-carboxamide] | – | 78 | – |
| CCc1nc(C(=O)NC[C@]2(O)CC[C@@H](S(C)(=O)=O)CC2)c(Cl)n1-c1ccc(CC(C(F)(F)F)C(F)(F)F)c(F)c1 [Example 105, 5-Chloro-2-ethyl-1-(3-fluoro-4-(3,3,3-trifluoro-2-(trifluoromethyl)propyl)phenyl)-N-(((1s,4s)-1-hydroxy-4-(methylsulfonyl)cyclohexyl)methyl)-1H-imidazole-4-carboxamide] | 0.053 | – | inhibition at 0.22 µM ([2]; 0.22 μM compound concentration (******), read-out: RORγt (FL) Reporter Assay A or B, % inhibition): 80% |
| CCc1nc(C(=O)NC[C@H]2CC[C@H](S(C)(=O)=O)CC2)c(C)n1-c1ccc(CC(C)C(F)(F)F)cc1OC (single isomer, unassigned) [Example 8] | 0.16 | – | inhibition at 0.67 µM ([2]; read-out: RORγt (FL) Reporter Assay A or B, % inhibition, 0.67 μM compound concentration (****)): 66% |
| CCc1nc(C(=O)NC[C@H]2CC[C@H](S(C)(=O)=O)CC2)c(Cl)n1-c1ncc(CCCC(F)(F)F)cc1OC(F)F [Example 48, 5-Chloro-1-(3-(difluoromethoxy)-5-(4,4,4-trifluorobutyl)pyridin-2-yl)-2-ethyl-N-(((1r,4r)-4-(methylsulfonyl)cyclohexyl)methyl)-1H-imidazole-4-carboxamide] | 0.05 | 104 | – |
| CCc1nc(C(=O)NC[C@]2(O)CC[C@@H](S(C)(=O)=O)CC2)c(Cl)n1-c1ccc(CC(C)(C)C(F)(F)F)c(F)c1 [Example 104, 5-Chloro-2-ethyl-1-(3-fluoro-4-(3,3,3-trifluoro-2,2-dimethylpropyl)phenyl)-N-(((1s,4s)-1-hydroxy-4-(methylsulfonyl)cyclohexyl)methyl)-1H-imidazole-4-carboxamide] | – | – | Kd [1]: 0.0054 µM |
| CCc1nc(C(=O)NC[C@]2(O)CC[C@@H](S(C)(=O)=O)CC2)c(C)n1-c1ncc(CC(C)(C)C(F)(F)F)cc1OC(F)F [Example 50, 1-(3-(Difluoromethoxy)-5-(3,3,3-trifluoro-2,2-dimethylpropyl)pyridin-2-yl)-2-ethyl-N-(((1s,4s)-1-hydroxy-4-(methylsulfonyl)cyclohexyl)methyl)-5-methyl-1H-imidazole-4-carboxamide] | 0.12 | 90 | – |
| CCc1nc(C(=O)NC[C@]2(O)CC[C@@H](S(C)(=O)=O)CC2)c(Cl)n1-c1ncc(CCCC(F)(F)F)cc1OC(F)F [Example 47, 5-Chloro-1-(3-(difluoromethoxy)-5-(4,4,4-trifluorobutyl)pyridin-2-yl)-2-ethyl-N-(((1s,4s)-1-hydroxy-4-(methylsulfonyl)cyclohexyl)methyl)-1H-imidazole-4-carboxamide] | 0.34 | 98 | – |
